In publication PMC8178536 (Journal of Ethnopharmacology, 2021):
pIC50, pKd: −log10 of the molar value. Like-named read-outs stand apart in the source and are kept apart here.

Experiments:
[1] = biological target: SARS-CoV-2 RBD (Severe acute respiratory syndrome coronavirus 2, UniProt P0DTC2); assay: biochemical; assay type: binding
[2] = biological target: ACE2-RBD interaction (human ACE2 / SARS-CoV-2 S protein RBD) (Severe acute respiratory syndrome coronavirus 2, UniProt P0DTC2); assay: biochemical; assay type: binding, human; SARS-CoV-2
[3] = tested on: SARS-CoV-2 S protein-pseudoviruses, 293T-ACE2 cells; assay: microbe, parasite or virus in culture; assay type: cell-based
[4] = biological target: ACE2 (Homo sapiens, UniProt Q9BYF1); assay type: binding; details: SPR, two-fold serial dilutions
ACE2, sequence (Q9BYF1 18-740): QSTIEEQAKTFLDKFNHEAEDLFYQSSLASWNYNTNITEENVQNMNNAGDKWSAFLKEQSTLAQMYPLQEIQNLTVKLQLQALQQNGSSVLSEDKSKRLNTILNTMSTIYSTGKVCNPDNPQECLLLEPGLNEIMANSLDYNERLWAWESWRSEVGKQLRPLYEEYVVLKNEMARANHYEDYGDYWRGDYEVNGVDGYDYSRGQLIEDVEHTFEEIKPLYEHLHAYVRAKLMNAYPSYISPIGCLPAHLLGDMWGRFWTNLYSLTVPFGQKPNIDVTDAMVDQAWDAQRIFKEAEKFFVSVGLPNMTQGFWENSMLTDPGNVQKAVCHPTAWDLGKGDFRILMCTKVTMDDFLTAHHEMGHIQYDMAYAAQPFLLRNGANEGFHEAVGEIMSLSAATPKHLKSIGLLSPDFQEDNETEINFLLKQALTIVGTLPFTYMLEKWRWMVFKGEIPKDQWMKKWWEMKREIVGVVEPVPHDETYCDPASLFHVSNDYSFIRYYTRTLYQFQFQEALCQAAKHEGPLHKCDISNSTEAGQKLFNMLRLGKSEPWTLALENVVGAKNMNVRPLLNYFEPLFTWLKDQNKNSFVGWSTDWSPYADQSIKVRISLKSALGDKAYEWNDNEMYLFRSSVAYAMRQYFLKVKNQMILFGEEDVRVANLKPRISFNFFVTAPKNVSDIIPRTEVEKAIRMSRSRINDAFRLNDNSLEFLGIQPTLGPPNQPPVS

[5] = tested on: SARS-CoV-2 S protein-pseudoviruses, Calu-3 cells; assay type: cell-based
[6] = Severe acute respiratory syndrome coronavirus 2, 293T/ACE2, read-out: IC50, infectivity of S protein-pseudoviruses to 293T-ACE2 cells

| Compound | pKd [1] | pIC50 [2] | pIC50 [3, 6] | binding to immobilized ACE2 [4] | infectivity of SARS-CoV-2 S protein-pseudoviruses to Calu-3 cells [5] | pIC50 ([3]; read-out: IC50, entry of S protein-pseudoviruses into 293T-ACE2 cells) |
| --- | --- | --- | --- | --- | --- | --- |
| O=C(O)c1cc(O)c2cc(O)ccc2n1 [Compound 1, 4,6-dihydroxyquinoline-2-carboxylic acid] | 6.22 | 6.24 | 5.96 | – | – | – |
| O=C(O)c1cc(O)c2ccccc2n1 [Compound 2, 4-hydroxyquinoline-2-carboxylic acid] | 5.28 | 7.15 | 6.36 | low or no binding | abolished the infectivity | – |
| COc1ccc2nc(C(=O)O)cc(O)c2c1 [Compound 3, 4-hydroxy-6-methoxyquinoline-2-carboxylic acid] | 5.27 | 6.82 | 6.12 | – | – | – |
| soluble recombinant human ACE2 | – | – | – | – | – | 7.16 |
